Measured values published in PMC11767801, “Purine but Not Pyrimidine De Novo Nucleotide Biosynthesis Inhibitors Strongly Enhance the Antiviral Effect of Corresponding Nucleobases Against Dengue Virus” (Molecules, 2025).
Entries after “also recorded” stand apart in the source; their conditions may differ. Read-outs that look alike come from different tables or passages of the source.

Columns and labels:
[1] = tested on: DENV replicon; assay: DENV replicon cell assay (Renilla luciferase); format: cell-based, Dengue virus (DENV); details: for EC50: Dengue virus; for potentiation of anti-replicon activity (in words): purine nucleobase combined with 6MMPR and/or 6MMPR prodrugs
Experimental: (§1) The following cell lines were used in this study: (i) Huh7 was purchased from JCRB Cell Bank (Seikisui XenoTech, Kansas City, MO, USA) and cultured in Minimum Essential Medium (MEM) supplemented with 10% fetal bovine serum (FBS), and 1× non-essential amino acids (NEAA), 1 mM sodium pyruvate, 100 IU penicillin/streptomycin per mL, 5 µg/mL plasmocin (InvivoGen, San Diego, CA, USA), 1× GlutaMAX, and (ii) BHK pD2-hRucPac-2ATG30 DENV replicon cells were a gift from M. Diamond (Washington University School of Medicine) and cultured in Dulbecco’s modified Eagle’s medium (DMEM) supplemented with 10% FBS, 100 IU penicillin/streptomycin per mL, 5 µg/mL plasmocin, 1× GlutaMAX, and 3 µg/mL puromycin (InvivoGen). (iii) A549 Ace2 TMPRSS2 cells were provided by M. Saeed (Boston University) and grown in DMEM supplemented with 10% FBS, 100 IU penicillin/streptomycin per mL, 10 mM HEPES, 1× NEAA, 1× GlutaMAX, 1 mM sodium pyruvate, 5 µg/mL plasmocin, 0.5 µg/mL puromycin, and 0.5 µg/mL blasticidin (InvivoGen).
The DENV replicon assay was performed as described. Briefly, DENV replicon cells were plated at 1500–2000 cells per well […] of a 96-well dish (Corning, USA) plate the day before use. The next day, compounds were added and cells incubated at 37 °C, 5% CO2, in a humidified incubator for three days. The cells were the washed with PBS and Complete Promega Renilla reagent was added (Promega E2720, Madison, USA, 1 µL Renilla-Glo Substrate + 99 µL Renilla-Glo Buffer + 100 µL phenol-red-free DMEM supplemented with 10% FBS per well). Cells were lysed for 10 min at room temp and 160 µL of lysate per well was transferred to wells of a 96-well opaque white plate (Falcon 353296, Corning, USA), and luminescence was measured using a BioTek (Winooski, USA) Neo2 plate reader.

[2] = tested on: ZIKV PAN1 Nluc reporter virus; assay: ZIKV nanoluc reporter virus assay in A549 Ace2 TMPRSS2 cells; format: cell-based, Zika virus (ZIKV); details: three days
Experimental: (§2) Figure 5 Flavivirus inhibition by the nucleobase 2-thiouracil (2SU) and the corresponding nucleoside 2-thiouridine (2SUridine). (A) Dose–response assay for inhibition of a ZIKV nanoluc reporter. Cells were inoculated with reporter virus for two hours, washed, and then compound-added. Three days later, cells were lysed, and the luciferase activity was analyzed. (B) DENV-induced cytopathic effects in compound-treated cells. Cells were inoculated with DENV for two hours, washed, and compound-added for five days. A neutral red assay was performed to determine cell viability. (C) Same as in (B), except the cells are not treated with virus. NITD = NITD008 a positive-control DENV inhibitor.
The following viruses were used in this study: (i) ZIKV PAN1 Nluc reporter virus has a nanoluc gene inserted into the viral genome as described. The virus was propagated and virus preps tittered as described. (ii) DENV type 2 New Guinea C strain (VR-1584) was obtained from ATCC (Manassas, VA, USA) and propagated in C6/36 mosquito cells as described.
The ZIKV nanoluc reporter virus assay was performed as described. Briefly, A549 Ace2 TMPRSS2 cells were plated into 96-well plates at 15,000 per well the night before use. […] The luciferase levels were measured using a Neo 2 plate reader (BioTek, Winooski, USA).

[3] = tested on: DENV type 2 New Guinea C strain; assay: DENV CPE assay in Huh7 cells (neutral red); format: cell-based, Dengue virus (DENV); details: five days
Experimental: as §2
The following viruses were used in this study: (i) ZIKV PAN1 Nluc reporter virus has a nanoluc gene inserted into the viral genome as described. The virus was propagated and virus preps tittered as described. […]
Huh7 cells were plated into 96-well plates at 10,000 cells per well the day before use. […] The compounds were removed, and the viability of the cells was measured using a neutral red staining assay. […] Neutral red destain buffer (50% ethanol, 49% H2O, and 1% glacial acetic acid) was added at 100 µL per well and the plates were read at 540 nm in a Molecular Device (San Jose, CA, USA) M5e plate reader.

[4] = Cell viability assay (MTS); format: cell-based; details: hamster
Experimental: as §1
(§3) Cell viability assays were performed as described in [9, 10, 23]. Briefly, DENV replicon cells were plated at 1500–2000 cells per well of a 96-well dish plate (Corning, NY, USA) the day before use. The next day, compounds were added and cells incubated at 37 °C, 5% CO2, in a humidified incubator for three days. The cells were washed with phosphate-buffered saline (PBS) and incubated with the MTS reagent (Promega G5430, Madison, WI, USA) as per the manufacturer’s instructions. The plates were read at a 490 nm wavelength at 30 min intervals in a BioTek (Winooski, VT, USA) Neo2 plate reader.

[5] = tested on: DENV replicon cells (BHK pD2-hRucPac-2ATG30); assay: Cell viability assay (MTS); format: cell-based; details: nucleobase combined with potentiators (6MMPR and prodrugs)
Experimental: as §1, §3

[6] = tested on: DENV; design: method as in PMID 29672522; details: cited from earlier work
[7] = 72 h, compound alone, DENV BHK replicon cells, luciferase, three days
[8] = compound alone, DENV replicon cells, MTS, three days
[9] = 72 h, Table 3, nucleobase dose-response plus vehicle (DMSO)
[10] = nucleobase dose-response +6MMPR 0.065 μM
[11] = nucleobase dose-response +Prdg 1 0.09 μM
[12] = nucleobase dose-response +Prdg 2 1.5 μM
[13] = nucleobase dose-response +Prdg 3 1.4 μM
[14] = Table 3, nucleobase dose-response plus vehicle (DMSO)

## O=c1ccn([C@@H]2O[C@H](CO)[C@@H](O)[C@H]2O)c(=S)[nH]1 [2-thiouridine]
[1]; [7]
  EC50: > 50 µM
[1]; compound alone, DENV BHK replicon cell line
  anti-replicon activity (in words): we did not observe activity
[2]
  antiviral activity, ZIKV reporter virus replication (in words): observe antiviral activity
[3]
  antiviral activity, DENV-induced cytopathic effects (in words): observe antiviral activity
[4]; [8]
  CC50 at 3 days: > 50 µM

## O=c1[nH]cc(F)c(=O)[nH]1 [5-fluorouracil]
[1]; [7]
  EC50: 0.74 µM
[4]; [8]
  CC50 at 3 days: 0.93 µM

## NC(=O)c1nc(F)c[nH]c1=O [Favipiravir]
[1]; [9]
  EC50: 128 µM
[1]; [7]
  EC50: 114 µM
[1]; [10]
  EC50: 63 µM
[1]; [11]
  EC50: 51 µM
[1]; [12]
  EC50: 47 µM
[1]; [13]
  EC50: 46 µM
[1]; listed as FAV
  potentiation of anti-replicon activity (in words): clear enhanced effect; also recorded: reduction in the EC50 value
[4]; [14]
  CC50 at 3 days: > 500 µM
[4]; [8]
  CC50 at 3 days: > 500 µM
[4]; [10]
  CC50 at 3 days: > 500 µM
[4]; [11]
  CC50 at 3 days: > 500 µM
[4]; [12]
  CC50 at 3 days: > 500 µM
[4]; [13]
  CC50 at 3 days: > 500 µM

## CSc1ncnc2c1ncn2[C@@H]1O[C@H](CO)[C@@H](O)[C@H]1O [Prdg 6MMPR, 6-methylmercaptopurine riboside]
[1]; [7]
  EC50: 0.21 µM
[4]; [8]
  CC50 at 3 days: 0.21 µM

## Cc1c(-c2ccc(-c3ccccc3F)cc2)nc2ccc(F)cc2c1C(=O)O [Brequinar]
[1]; [7]
  EC50: 3 µM
[4]; [8]
  CC50 at 3 days: 4.5 µM

## CSc1ncnc2c1ncn2[C@@H]1O[C@H](COC(=O)N(C)C)[C@@H](O)[C@H]1O [Prdg 2]
[1]; [7]
  EC50: 2.5 µM
[4]; [8]
  CC50 at 3 days: 5.4 µM

## CSc1ncnc2c1ncn2[C@@H]1O[C@H](COC(=O)N(C)C)[C@@H](OC(=O)C(C)C)[C@H]1OC(=O)C(C)C [Prdg 3]
[1]; [7]
  EC50: 2.3 µM
[4]; [8]
  CC50 at 3 days: 2.4 µM

## O=c1cc[nH]c(=S)[nH]1 [Prdg 2-thiouracil, 2-thiouracil]
[1]; [7]
  EC50: > 50 µM
[4]; [8]
  CC50 at 3 days: > 50 µM

## CSc1ncnc2c1ncn2[C@@H]1O[C@H](COC(=O)C(C)C)[C@@H](OC(=O)C(C)C)[C@H]1OC(=O)C(C)C [Prdg 1]
[1]; [7]
  EC50: 0.26 µM
[4]; [8]
  CC50 at 3 days: 2.6 µM

## CC(C)C(=O)OC[C@H]1O[C@@H](n2ccc(NO)nc2=O)[C@H](O)[C@@H]1O [Molnupiravir]
[1]; [7]
  EC50: 6.2 µM
[4]; [8]
  CC50 at 3 days: 53 µM

## NC(=O)c1ncc[nH]c1=O [Prdg T-1105]
[1]; [9]
  EC50: 15 µM
[1]; [7]
  EC50: 13 µM
[1]; [10]
  EC50: 11 µM
[1]; [11]
  EC50: 8.3 µM
[1]; [12]
  EC50: 10 µM
[1]; [13]
  EC50: 9.6 µM
[1]
  potentiation of anti-replicon activity (in words): strongly potentiated
[4]; [14]
  CC50 at 3 days: > 167 µM
[4]; [8]
  CC50 at 3 days: > 500 µM
[4]; [10]
  CC50 at 3 days: > 167 µM
[4]; [11]
  CC50 at 3 days: > 167 µM
[4]; [12]
  CC50 at 3 days: > 167 µM
[4]; [13]
  CC50 at 3 days: > 167 µM

## O=c1cnn([C@@H]2O[C@H](CO)[C@@H](O)[C@H]2O)c(=O)[nH]1 [Prdg 6-azauridine, 6-azauridine]
[1]; [7]
  EC50: 1.9 µM
[4]; [8]
  CC50 at 3 days: 8.8 µM

## NC(=O)c1nc[nH]n1 [Ribavirin nucleobase]
[1]; [9]
  EC50: 5.7 µM
[1]; [7]
  EC50: 5.7 µM
[1]; [10]
  EC50: 3.4 µM
[1]; [11]
  EC50: 2.3 µM
[1]; [12]
  EC50: 0.88 µM
[1]; [13]
  EC50: 2.6 µM
[1]
  potentiation of anti-replicon activity (in words): can be potentiated
[5]
  toxicity of combination (in words): conferred some toxicity not shown by either compound alone
[4]; [14]
  CC50 at 3 days: > 50 µM
[4]; [8]
  CC50 at 3 days: > 100 µM
[4]; [10]
  CC50 at 3 days: > 50 µM
[4]; [11]
  CC50 at 3 days: > 50 µM
[4]; [12]
  CC50 at 3 days: > 50 µM
[4]; [13]
  CC50 at 3 days: > 50 µM
[6]
  anti-DENV activity (in words): similarly strong antiviral activity
  cytotoxicity (in words): considerably less cytotoxic than ribavirin
[6]; listed as ribavirin nucleobase
  anti-DENV activity (in words): strong
  cytotoxicity (in words): non-cytotoxic
